Laboratory results taken from the NIST ThermoML archive (doi:10.1016/j.fluid.2004.11.019).

Assay: xn = mol fraction of the nth substance listed
Settings: 348.15 K, Liquid

CCO [ethanol] + O
mass density [kg/m3]
Settings | 10000 kPa | 20000 kPa | 30000 kPa | 40000 kPa
x1 = 0.003 | – | 981.9 | 986.1 | 990.1
x1 = 0.0042 | – | 980.6 | 984.8 | 988.8
x1 = 0.0082 | – | 979.4 | 983.6 | 987.6
x1 = 0.0119 | – | 977.7 | 981.9 | 986
x1 = 0.0158 | – | 975.3 | 979.4 | 983.5
x1 = 0.0184 | – | 973.9 | 978.1 | 982.1
x1 = 0.0219 | – | 972.6 | 976.7 | 980.8
x1 = 0.0255 | – | 970.7 | 975 | 979
x1 = 0.0279 | – | 969.1 | 973.3 | 977.3
x1 = 0.0315 | – | 968 | 972.3 | 976.3
x1 = 0.0366 | – | 965.3 | 969.5 | 973.6
x1 = 0.0392 | – | 963.8 | 968.1 | 972.1
x1 = 0.0439 | – | 962.1 | 966.3 | 970.4
x1 = 0.0483 | 955.6 | 959.9 | 964.1 | 968.2
x1 = 0.0516 | 954.6 | 958.9 | 963.2 | 967.3
x1 = 0.0559 | 953.2 | 957.5 | 961.7 | 965.9
x1 = 0.06 | 951.3 | 955.8 | 960 | 964.1
x1 = 0.0652 | 949.1 | 953.5 | 957.8 | 961.9
x1 = 0.0679 | 948.2 | 952.5 | 956.8 | 960.9
x1 = 0.0722 | 946.1 | 950.4 | 954.7 | 958.9
x1 = 0.0801 | 942.6 | 947 | 951.3 | 955.6
x1 = 0.084 | 941.9 | 946.3 | 950.7 | 954.9
x1 = 0.0879 | 939.9 | 944.4 | 948.8 | 953
x1 = 0.0926 | 938.1 | 942.6 | 947 | 951.3
x1 = 0.0958 | 936.8 | 941.3 | 945.7 | 950
x1 = 0.1006 | 934.9 | 939.4 | 943.9 | 948.1
x1 = 0.1111 | 930.7 | 935.3 | 939.8 | 944.2
x1 = 0.1225 | 926.3 | 931.1 | 935.6 | 940
x1 = 0.1296 | 923.6 | 928.3 | 932.9 | 937.4
x1 = 0.1402 | 919.5 | 924.4 | 929.1 | 933.7
x1 = 0.151 | 915.4 | 920.3 | 925.1 | 929.7
x1 = 0.1601 | 912.1 | 917.1 | 922 | 926.6
x1 = 0.1703 | 908.4 | 913.5 | 918.4 | 923.1
x1 = 0.18 | 904.8 | 910 | 915 | 919.8
x1 = 0.1903 | 901.3 | 906.5 | 911.6 | 916.4
x1 = 0.1996 | 898.1 | 903.4 | 908.5 | 913.4
x1 = 0.2269 | 888.9 | 894.4 | 899.7 | 904.8
x1 = 0.2502 | 881.6 | 887.3 | 892.8 | 898.1
x1 = 0.2745 | 874.2 | 880.2 | 885.8 | 891.1
x1 = 0.3009 | 866.8 | 872.9 | 878.6 | 884.2
x1 = 0.35 | 853.6 | 860 | 866.2 | 872
x1 = 0.4034 | 840.7 | 847.5 | 854 | 860
x1 = 0.4501 | 830.3 | 837.4 | 844.2 | 850.5
x1 = 0.498 | 820.7 | 828.1 | 835.1 | 841.6
x1 = 0.5501 | 811 | 818.7 | 825.9 | 832.7
x1 = 0.5998 | 802.5 | 810.5 | 818 | 824.9
x1 = 0.6489 | 794.6 | 802.9 | 810.6 | 817.8
x1 = 0.6967 | 787.6 | 796.1 | 804 | 811.3
x1 = 0.7475 | 780.7 | 789.4 | 797.6 | 805.1
x1 = 0.7996 | 774 | 783 | 791.3 | 799
x1 = 0.8484 | 768 | 777.3 | 785.8 | 793.6
x1 = 0.8993 | 762.1 | 771.6 | 780.3 | 788.3
x1 = 0.9503 | 756.7 | 766.4 | 775.2 | 783.4
x1 = 1 | 751.2 | 761.2 | 770.3 | 778.6
